Assay results: patent publication US6248752A, “Azabicyclooctane compositions and methods for enhancing chemotherapy” (priority 1999, dated 2001)
Read-outs that look alike come from different tables or passages of the source.

How the values were obtained:
MRP = target: T1, MRP (Homo sapiens, UniProt P33527); experiment: Reversal of MRP-mediated MDR: potentiation of vincristine cytotoxicity toward HL-60/ADR cells; type: cell-based
T1 construct: Human promyelocytic leukemia HL-60/ADR cells, which express MRP; endogenous in cells; host or cells: HL-60/ADR human promyelocytic leukemia cells

[1] = Intrinsic cytotoxicity of the compounds toward drug-sensitive MCF-7 cells (sulforhodamine B binding assay); details: human, Cytotoxicity (% killed at 10 μg/ml)
[2] = system: MCF-7 human breast carcinoma cells; details: mcf-7 cells, 48 h
in vitro = details: human, mcf-7 cells, Cytotoxicity (% killed at 10 μg/ml)
Pgp = Pgp (Homo sapiens, UniProt P08183)
[3] = chemosensitizing score on a scale of 0-5 (best activity=5; equal or superior to verapamil = 4, 4.5 or 5), HL-60/ADR cells, 2 nM vincristine, 48 h

T1 sequence (P33527 whole entry): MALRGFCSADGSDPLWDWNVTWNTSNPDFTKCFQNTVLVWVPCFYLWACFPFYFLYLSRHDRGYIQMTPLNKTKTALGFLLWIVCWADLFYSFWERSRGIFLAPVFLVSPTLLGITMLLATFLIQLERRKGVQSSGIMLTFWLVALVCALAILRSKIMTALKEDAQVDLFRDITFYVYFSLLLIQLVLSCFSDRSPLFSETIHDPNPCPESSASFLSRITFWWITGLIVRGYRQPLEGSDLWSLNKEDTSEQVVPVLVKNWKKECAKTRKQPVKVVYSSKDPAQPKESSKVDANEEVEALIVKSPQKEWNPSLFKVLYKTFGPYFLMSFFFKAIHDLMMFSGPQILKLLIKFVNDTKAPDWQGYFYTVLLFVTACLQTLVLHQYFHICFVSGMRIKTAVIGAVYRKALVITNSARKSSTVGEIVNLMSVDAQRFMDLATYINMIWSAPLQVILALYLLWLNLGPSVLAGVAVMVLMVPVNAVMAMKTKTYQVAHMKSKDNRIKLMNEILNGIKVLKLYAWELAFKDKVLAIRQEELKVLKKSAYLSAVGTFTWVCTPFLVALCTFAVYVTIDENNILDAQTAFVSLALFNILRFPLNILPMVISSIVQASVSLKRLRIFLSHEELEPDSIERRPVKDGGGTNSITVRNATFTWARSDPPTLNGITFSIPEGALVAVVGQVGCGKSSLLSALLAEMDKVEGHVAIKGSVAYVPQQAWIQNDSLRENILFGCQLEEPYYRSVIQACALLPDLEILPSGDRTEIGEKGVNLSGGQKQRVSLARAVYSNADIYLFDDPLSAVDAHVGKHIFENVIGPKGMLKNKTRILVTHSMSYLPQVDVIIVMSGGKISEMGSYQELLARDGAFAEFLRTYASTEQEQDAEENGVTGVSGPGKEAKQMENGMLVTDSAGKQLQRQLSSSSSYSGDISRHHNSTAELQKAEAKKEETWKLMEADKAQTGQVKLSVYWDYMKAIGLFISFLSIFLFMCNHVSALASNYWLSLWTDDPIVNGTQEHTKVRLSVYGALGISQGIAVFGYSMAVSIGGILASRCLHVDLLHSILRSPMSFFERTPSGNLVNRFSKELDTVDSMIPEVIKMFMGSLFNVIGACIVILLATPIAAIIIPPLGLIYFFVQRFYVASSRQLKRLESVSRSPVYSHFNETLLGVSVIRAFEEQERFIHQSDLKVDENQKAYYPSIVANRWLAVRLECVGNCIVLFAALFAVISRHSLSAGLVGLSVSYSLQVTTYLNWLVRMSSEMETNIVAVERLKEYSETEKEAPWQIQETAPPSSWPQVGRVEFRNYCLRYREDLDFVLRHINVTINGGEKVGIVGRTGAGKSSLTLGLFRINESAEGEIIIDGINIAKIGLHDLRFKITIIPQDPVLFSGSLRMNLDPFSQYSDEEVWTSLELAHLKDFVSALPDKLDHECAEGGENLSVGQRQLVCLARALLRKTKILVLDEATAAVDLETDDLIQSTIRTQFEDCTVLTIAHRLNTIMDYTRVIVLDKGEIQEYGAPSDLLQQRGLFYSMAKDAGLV
Sequence of Pgp (P08183 whole entry): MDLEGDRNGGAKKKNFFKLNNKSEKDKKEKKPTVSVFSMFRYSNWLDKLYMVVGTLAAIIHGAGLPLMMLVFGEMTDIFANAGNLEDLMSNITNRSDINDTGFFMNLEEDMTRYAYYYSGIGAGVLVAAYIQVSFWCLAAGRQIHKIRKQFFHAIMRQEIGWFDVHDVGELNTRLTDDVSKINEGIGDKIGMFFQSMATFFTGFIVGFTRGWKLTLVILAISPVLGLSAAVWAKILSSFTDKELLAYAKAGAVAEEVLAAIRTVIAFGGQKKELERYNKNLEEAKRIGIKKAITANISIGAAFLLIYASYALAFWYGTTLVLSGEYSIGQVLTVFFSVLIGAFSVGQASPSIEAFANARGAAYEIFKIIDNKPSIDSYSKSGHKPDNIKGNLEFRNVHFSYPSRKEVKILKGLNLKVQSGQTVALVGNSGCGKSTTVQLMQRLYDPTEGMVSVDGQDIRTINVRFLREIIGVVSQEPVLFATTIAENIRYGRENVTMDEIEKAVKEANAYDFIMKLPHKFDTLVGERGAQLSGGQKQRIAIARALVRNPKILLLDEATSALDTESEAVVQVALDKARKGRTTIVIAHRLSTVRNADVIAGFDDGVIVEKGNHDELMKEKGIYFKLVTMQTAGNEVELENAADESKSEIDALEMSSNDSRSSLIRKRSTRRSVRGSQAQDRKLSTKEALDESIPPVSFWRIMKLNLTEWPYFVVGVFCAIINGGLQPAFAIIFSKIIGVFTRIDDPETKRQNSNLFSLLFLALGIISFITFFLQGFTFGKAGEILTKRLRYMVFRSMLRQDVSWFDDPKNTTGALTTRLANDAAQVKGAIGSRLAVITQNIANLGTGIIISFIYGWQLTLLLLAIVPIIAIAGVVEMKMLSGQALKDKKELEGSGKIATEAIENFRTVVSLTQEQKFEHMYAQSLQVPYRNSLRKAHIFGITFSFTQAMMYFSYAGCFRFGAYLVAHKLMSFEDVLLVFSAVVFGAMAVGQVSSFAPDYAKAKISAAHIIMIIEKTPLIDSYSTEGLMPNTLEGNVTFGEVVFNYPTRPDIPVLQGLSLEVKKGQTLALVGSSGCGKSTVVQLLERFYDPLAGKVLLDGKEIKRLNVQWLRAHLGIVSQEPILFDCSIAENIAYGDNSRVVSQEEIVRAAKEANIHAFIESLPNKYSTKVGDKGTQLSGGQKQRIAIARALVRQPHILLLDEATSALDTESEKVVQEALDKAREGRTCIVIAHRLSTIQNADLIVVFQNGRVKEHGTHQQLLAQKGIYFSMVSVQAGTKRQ

## COc1cc(C2(O)CC3CCC2N(Cc2ccccc2)C3)cc(OC)c1OC (stereo not drawn) [Compound I-2, 2-benzyl-cis-6-hydroxy-trans-6-(3,4,5-trimethoxyphenyl)-2-azabicyclco[2.2.2]octane]
MRP; [3]
  MRP antagonism: 3
[1]
  cytotoxicity at 48 h: 39%

## COc1cc(C2CC3CCC2N(Cc2ccccc2)C3)cc(OC)c1OC (stereo not shown) [Compound I-3, 2-benzyl-6-(3,4,5-trimethoxyphenyl)-2-azabicyclo[2.2.2]octane]
MRP; [3]
  MRP antagonism: 4
[1]
  cytotoxicity at 48 h: 22%

## COc1cc(C2CC3CCC2NC3)cc(OC)c1OC (stereo not drawn) [Compound I-4, cis-6-(3,4,5-trimethoxyphenyl)-2-azabicyclo[2.2.2]octane]
MRP; [3]
  MRP antagonism: 2
[2]
  Cytotoxicity (% killed at 10 μg/ml): 12%

## COc1cc(C2CC3CCC2NC3)cc(OC)c1OC (stereo not drawn) [Compound I-5, trans-6-(3,4,5-trimethoxyphenyl)-2-azabicyclo[2.2.2]octane]
MRP; [3]
  MRP antagonism: 4
[2]
  Cytotoxicity (% killed at 10 μg/ml): 0%

## Oc1ccc(C2(O)CC3CCC2N(Cc2ccccc2)C3)cc1O (stereo not drawn) [Compound I-6, 2-benzyl-cis-6-hydroxy-trans-6-(3,4-dihydroxyphenyl)-2-azabicyclo[2.2. 2]octane]
MRP; [3]
  MRP antagonism: 1.5
[1]
  cytotoxicity at 48 h: 21%

## CCN1CC2CCC1C(Nc1ccccc1)C2 (stereo not shown) [Compound I-7, 2-ethyl-6-anilino-2-azabicyclo[2.2.2]octane]
MRP; [3]
  MRP antagonism: 1
In vitro
  cytotoxicity at 48 h: 26%

## OC1CC2CCC1N(Cc1ccccc1)C2 (stereo not drawn) [Compound I-9, 2-benzyl-6-trans-hydroxy-2-azabicyclo[2.2.2]octane]
MRP; [3]
  MRP antagonism: 0
In vitro
  cytotoxicity at 48 h: 0%

## OC1(c2ccc(OCc3ccccc3)c(OCc3ccccc3)c2)CC2CCC1N(Cc1ccccc1)C2 (stereo not shown) [Compound I-10, 2-benzyl-6-(3,4-dibenzyloxyphenyl)-6-hydroxy-2-azabicyclo[2.2.2]octane]
MRP; [3]
  MRP antagonism: 0
[1]
  cytotoxicity at 48 h: 0%

## CN1CC2CCC1C(=O)C2=C(c1ccccc1)c1ccccc1 (stereo not shown) [Compound I-11, 5-diphenylmethylidene-2-methyl-2-azabicyclo[2.2.2]octan-6-one]
[1]
  cytotoxicity at 48 h: 8%

## NNC(=O)OC1CC2CCC(C1)N2C(=O)Oc1ccc(Cl)cc1 (stereo not shown) [II-1, 3-hydrazinocarbonyloxy-8-(4-chlorophenoxycarbonyl)-8-azabicyclo[3.2. 1]octane]
MRP
  MRP antagonism: 2
Pgp
  Pgp antagonism: 3
